US20260216164A1, “INDOLE COMPOUND DECOMPOSING IKZF2, AND USE THEREOF” (KOREA RESEARCH INSTITUTE OF CHEMICAL TECHNOLOGY, priority 2023, published 2026)

Target: Helios (IKZF2) (Homo sapiens, UniProt Q96SW2+Q9UKS7)
Assay: Screening of Helios protein degraders using Nano-Glo HiBiT cell line (HiBiT-IKZF2)
Format: cell-based
Settings: 6 hours, HiBiT-Helios knock-in Jurkat cells; for remaining activity at 1 µM: compound 1 μM, read-out: HiBiT-IKZF2 Residual amount of Helios (%) 1 μM; for remaining activity at 10 µM: compound 10 μM, read-out: HiBiT-IKZF2 Residual amount of Helios (%) 10 μM
Procedure: To observe intracellular degradation of Helios, the Nano-Glo HiBiT detection system (Promega) was employed. […] The cells expressing Helios fused with HiBiT were validated using the Nano-Glo HiBiT detection system (Promega) according to a predetermined protocol, isolated as single cells, and cultured in complete medium to establish a monoclonal cell line.
After 6 hours, the Nano-Glo HiBiT detection reagent was added to each well in an equal volume to the cell culture medium and incubated at room temperature for 10 minutes. Following incubation, the HiBiT luminescence signal was measured using a microplate reader (Perkin Elmer).

Helios (IKZF2), sequence (Q9UKS7 whole entry): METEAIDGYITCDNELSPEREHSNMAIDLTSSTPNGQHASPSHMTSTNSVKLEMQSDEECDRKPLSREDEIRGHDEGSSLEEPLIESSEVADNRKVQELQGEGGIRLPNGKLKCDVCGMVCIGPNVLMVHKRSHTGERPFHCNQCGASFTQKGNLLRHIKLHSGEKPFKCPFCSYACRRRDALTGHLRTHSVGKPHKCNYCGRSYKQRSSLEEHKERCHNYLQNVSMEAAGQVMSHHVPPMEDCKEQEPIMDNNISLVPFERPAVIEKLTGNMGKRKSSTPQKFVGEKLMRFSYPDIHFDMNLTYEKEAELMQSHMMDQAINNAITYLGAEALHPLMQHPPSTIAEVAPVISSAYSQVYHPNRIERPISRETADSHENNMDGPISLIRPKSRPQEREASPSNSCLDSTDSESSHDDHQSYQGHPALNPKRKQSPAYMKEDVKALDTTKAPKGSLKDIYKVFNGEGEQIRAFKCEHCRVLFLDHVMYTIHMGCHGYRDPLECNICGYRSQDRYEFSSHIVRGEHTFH
Helios (IKZF2), sequence (Q96SW2 whole entry): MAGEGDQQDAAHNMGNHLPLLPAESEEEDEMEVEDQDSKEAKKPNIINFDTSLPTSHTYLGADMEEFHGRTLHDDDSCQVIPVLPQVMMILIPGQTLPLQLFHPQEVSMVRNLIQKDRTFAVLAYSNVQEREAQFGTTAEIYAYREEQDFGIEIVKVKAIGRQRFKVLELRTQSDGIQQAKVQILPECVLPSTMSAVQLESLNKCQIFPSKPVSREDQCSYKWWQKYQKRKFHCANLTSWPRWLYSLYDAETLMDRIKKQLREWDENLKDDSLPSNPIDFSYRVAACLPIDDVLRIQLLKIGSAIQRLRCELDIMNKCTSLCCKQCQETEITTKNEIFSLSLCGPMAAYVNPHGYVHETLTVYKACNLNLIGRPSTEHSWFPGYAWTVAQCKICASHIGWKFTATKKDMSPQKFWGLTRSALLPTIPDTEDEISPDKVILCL
Helios (IKZF2), sequence (Q16531 whole entry partner): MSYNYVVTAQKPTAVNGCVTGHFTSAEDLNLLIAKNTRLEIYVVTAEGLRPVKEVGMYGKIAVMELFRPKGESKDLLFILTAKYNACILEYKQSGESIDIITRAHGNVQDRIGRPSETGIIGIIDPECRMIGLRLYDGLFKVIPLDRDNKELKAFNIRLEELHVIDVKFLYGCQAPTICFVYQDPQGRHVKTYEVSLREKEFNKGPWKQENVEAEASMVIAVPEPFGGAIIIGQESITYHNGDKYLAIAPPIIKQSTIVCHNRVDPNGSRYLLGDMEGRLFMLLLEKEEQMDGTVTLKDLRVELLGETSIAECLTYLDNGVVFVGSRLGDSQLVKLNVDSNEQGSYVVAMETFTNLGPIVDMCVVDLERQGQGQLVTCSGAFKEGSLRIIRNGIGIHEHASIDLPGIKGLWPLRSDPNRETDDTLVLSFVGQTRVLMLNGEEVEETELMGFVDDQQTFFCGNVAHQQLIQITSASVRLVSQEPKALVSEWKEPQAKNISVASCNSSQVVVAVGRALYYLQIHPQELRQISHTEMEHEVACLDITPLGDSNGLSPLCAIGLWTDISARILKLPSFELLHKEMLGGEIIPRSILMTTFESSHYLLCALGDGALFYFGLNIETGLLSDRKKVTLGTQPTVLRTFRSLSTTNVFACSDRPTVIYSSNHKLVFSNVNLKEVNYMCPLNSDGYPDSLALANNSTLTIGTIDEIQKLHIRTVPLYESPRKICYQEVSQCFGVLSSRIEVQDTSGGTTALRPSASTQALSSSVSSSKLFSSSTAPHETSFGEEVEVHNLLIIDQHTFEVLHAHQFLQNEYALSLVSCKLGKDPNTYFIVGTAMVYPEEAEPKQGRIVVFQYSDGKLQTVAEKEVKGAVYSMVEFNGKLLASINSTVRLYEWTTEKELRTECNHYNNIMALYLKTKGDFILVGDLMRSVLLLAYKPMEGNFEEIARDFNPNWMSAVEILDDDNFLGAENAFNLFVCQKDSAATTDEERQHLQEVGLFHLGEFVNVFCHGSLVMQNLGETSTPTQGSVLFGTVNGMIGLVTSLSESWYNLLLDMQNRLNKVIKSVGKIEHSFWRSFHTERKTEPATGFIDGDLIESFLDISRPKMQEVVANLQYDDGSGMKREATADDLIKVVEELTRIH

remaining activity at 1 µM	remaining activity at 10 µM	Structure (SMILES)
73.2%	75.8%	Cc1c(C(=O)N2CCC(c3ccc4c(c3)CN(C3CCC(=O)NC3=O)C4=O)CC2)[nH]c2cc(NS(C)(=O)=O)ccc12 (stereo not drawn) [Compound 74, N-(2-(4-(2-(2,6-dioxopiperidin-3-yl)-1-oxoindolin-5-yl)piperidine-1-carbonyl)-3-methyl-1H-indol-6-yl) methanesulfonamide]
16.8%	11.4%	Cc1c(C(=O)N2CCC(c3ccc4c(c3)CN(C3CCC(=O)NC3=O)C4=O)CC2)[nH]c2c(C)c(Cl)ccc12 (stereo not drawn) [Compound 100, 3-(5-(1-(6-chloro-3,7-dimethyl-1H-indole-2-carbonyl)piperidin-4-yl)-1-oxoinsoindolin-2-yl)piperidine-2,6-dione]
26.8%	20.6%	Cc1cc2c(C)c(C(=O)N3CCC(c4ccc5c(c4)CN(C4CCC(=O)NC4=O)C5=O)CC3)[nH]c2cc1Cl (stereo not drawn) [Compound 103, 3-(5-(1-(6-chloro-3,5-dimethyl-1H-indole-2-carbonyl)piperidin-4-yl)-1-oxoinsoindolin-2-yl)piperidine-2,6-dione]
56.6%	51.5%	Cc1c(C(=O)N2CCC(c3ccc4c(c3)CN(C3CCC(=O)NC3=O)C4=O)CC2)[nH]c2cc(Cl)cc(Cl)c12 (stereo not drawn) [Compound 107, 3-(5-(1-(4,6-dichloro-3-methyl-1H-indole-2-carbonyl)piperidin-4-yl)-1-oxoinsoindolin-2-yl)piperidine-2,6-dione]
	31.3%	Cc1c(C(=O)N2CCC(c3ccc4c(c3)CN(C3CCC(=O)NC3=O)C4=O)CC2)[nH]c2cc(C(C)(C)C)ccc12 (stereo not drawn) [Compound 56, 3-(5-(1-(6-(tert-butyl)-3-methyl-1H-indole-2-carbonyl)piperidin-4-yl)-1-oxoinsoindolin-2-yl)piperidine-2,6-dione]
75%	94.3%	Cc1c(C(=O)N2CCC(c3ccc4c(c3)CN(C3CCC(=O)NC3=O)C4=O)CC2)[nH]c2ncccc12 (stereo not drawn) [Compound 31, 3-(5-(1-(3-methyl-1H-picolo[2,3-b]pyridine-2-carbonyl)piperidin-4-yl)-1-oxoinsoindolin-2-yl)piperidine-2,6-dione]
	35%	Cc1c(C(=O)N2CCC(c3ccc4c(c3)CN(C3CCC(=O)NC3=O)C4=O)CC2)[nH]c2cc(N)ccc12 (stereo not drawn) [Compound 61, 3-(5-(1-(6-amino-3-methyl-1H-indole-2-carbonyl)piperidin-4-yl)-1-oxoinsoindolin-2-yl)piperidine-2,6-dione]
43.3%	34.3%	Cc1c(C(=O)N2CCC(c3ccc4c(c3)CN(C3CCC(=O)NC3=O)C4=O)CC2)[nH]c2cc(Cl)c(Cl)cc12 (stereo not drawn) [Compound 72, 3-(5-(1-(5,6-dichloro-3-methyl-1H-indole-2-carbonyl)piperidin-4-yl)-1-oxoinsoindolin-2-yl)piperidine-2,6-dione]
	49%	Cc1c(C(=O)N2CCC(c3ccc4c(c3)CN(C3CCC(=O)NC3=O)C4=O)CC2)[nH]c2cc(Cl)c(Br)cc12 (stereo not drawn) [Compound 83, 3-(5-(1-(5-bromo-6-chloro-3-methyl-1H-indole-2-carbonyl)piperidin-4-yl)-1-oxoinsoindolin-2-yl)piperidine-2,6-dione]

The remaining lines, values behind:

Structure (SMILES)	remaining activity at 1 µM	remaining activity at 10 µM
O=C1CCC(N2Cc3cc(C4CCN(C(=O)c5cc6ncc(Cl)cc6[nH]5)CC4)ccc3C2=O)C(=O)N1 (stereo not drawn) [Compound 45, 3-(5-(1-(6-chloro-1H-picolo[3,2-b]pyridine-2-carbonyl)piperidin-4-yl)-1-oxoinsoindolin-2-yl)piperidine-2,6-dione]	70.3%	58.2%
Cc1c(C(=O)N2CCC(C#Cc3ccc4c(c3)CN(C3CCC(=O)NC3=O)C4=O)CC2)[nH]c2cc(Cl)ccc12 (stereo not drawn) [Compound 43, 3-(5-((1-(6-chloro-3-methyl-1H-indole-2-carbonyl)piperidin-4-yl)ethynyl)-1-oxoinsoindolin-2-yl)piperidine-2,6-dione]	22.7%	15.7%
Nc1ccc2cc(C(=O)N3CCC(c4ccc5c(c4)CN(C4CCC(=O)NC4=O)C5=O)CC3)[nH]c2c1 (stereo not drawn) [Compound 32, 3-(5-(1-(6-amino-1H-indole-2-carbonyl)piperidin-4-yl)-1-oxoinsoindolin-2-yl)piperidine-2,6-dione]	62.1%	57.3%
O=C1CCC(N2Cc3cc(C4CCN(C(=O)c5cc6c(Cl)cc(Cl)cc6[nH]5)CC4)ccc3C2=O)C(=O)N1 (stereo not drawn) [Compound 6, 3-(5-(1-(4,6-dichloro-1H-indole-2-carbonyl)piperidin-4-yl)-1-oxoinsoindolin-2-yl)piperidine-2,6-dione]	107%	107%
COc1cc2cc(C(=O)N3CCC(c4ccc5c(c4)CN(C4CCC(=O)NC4=O)C5=O)CC3)[nH]c2cc1OC (stereo not drawn) [Compound 40, 3-(5-(1-(5,6-dimethoxy-1H-indole-2-carbonyl)piperidin-4-yl)-1-oxoinsoindolin-2-yl)piperidine-2,6-dione]	92.2%	74.5%
O=C1CCC(N2Cc3cc(C4CCN(C(=O)c5cc6ccc(F)cc6[nH]5)CC4)ccc3C2=O)C(=O)N1 (stereo not drawn) [Compound 7, 3-(5-(1-(6-fluoro-1H-indole-2-carbonyl)piperidin-4-yl)-1-oxoinsoindolin-2-yl)piperidine-2,6-dione]	93.3%	98.6%
O=C1CCC(N2Cc3cc(C4CCN(C(=O)c5cc6cc(F)ccc6[nH]5)CC4)ccc3C2=O)C(=O)N1 (stereo not drawn) [Compound 17, 3-(5-(1-(5-fluoro-1H-indole-2-carbonyl)piperidin-4-yl)-1-oxoinsoindolin-2-yl)piperidine-2,6-dione]	95%	96.6%
CC1CC(c2ccc3c(c2)CN(C2CCC(=O)NC2=O)C3=O)CCN1C(=O)c1cc2ccc(Cl)cc2[nH]1 (stereo not drawn) [Compound 59, 3-(5-(1-(6-chloro-1H-indole-2-carbonyl)-2-methylpiperidin-4-yl)-1-oxoinsoindolin-2-yl)piperidine-2,6-dione]		25.4%
Cc1c(C(=O)N2CC=C(c3ccc4c(c3)CN(C3CCC(=O)NC3=O)C4=O)CC2)[nH]c2cc(Cl)ccc12 (stereo not drawn) [Compound 70, 3-(5-(1-(6-chloro-3-methyl-1H-indole-2-carbonyl)-1,2,3,6-tetrahydropyridin-4-yl)-1-oxoinsoindolin-2-yl)piperidine-2,6-dione]	94.8%	101%
Cc1c(C(=O)N2CC=C(c3ccc4c(c3)CN(C3CCC(=O)NC3=O)C4=O)C2)[nH]c2cc(Cl)ccc12 (stereo not drawn) [Compound 65, 3-(5-(1-(6-chloro-3-methyl-1H-indole-2-carbonyl)-2,5-dihydro-1H-pyrrol-3-yl)-1-oxoinsoindolin-2-yl)piperidine-2,6-dione]		109%
O=C1CCC(N2Cc3cc(C4CCN(C(=O)c5cc6ccc(O)cc6[nH]5)CC4)ccc3C2=O)C(=O)N1 (stereo not drawn) [Compound 18, 3-(5-(1-(6-hydroxy-1H-indole-2-carbonyl)piperidin-4-yl)-1-oxoinsoindolin-2-yl)piperidine-2,6-dione]	53.6%	54.4%
O=C1CCC(N2Cc3cc(C4CCN(C(=O)c5[nH]c6ccccc6c5CN5CCOCC5)CC4)ccc3C2=O)C(=O)N1 (stereo not drawn) [Compound 34, 3-(5-(1-(3-(morpholinomethyl)-1H-indole-2-carbonyl)piperidin-4-yl)-1-oxoinsoindolin-2-yl)piperidine-2,6-dione]	66.5%	43.5%
Cc1c(C(=O)N2CCC(=Cc3ccc4c(c3)CN(C3CCC(=O)NC3=O)C4=O)CC2)[nH]c2cc(Cl)ccc12 (stereo not drawn) [Compound 44, 3-(5-((1-(6-chloro-3-methyl-1H-indole-2-carbonyl)piperidin-4-ylidene)methyl)-1-oxoinsoindolin-2-yl)piperidine-2,6-dione]	69.7%	61.1%
COc1ccc2c(CN3CCOCC3)c(C(=O)N3CCC(c4ccc5c(c4)CN(C4CCC(=O)NC4=O)C5=O)CC3)[nH]c2c1 (stereo not drawn) [Compound 110, 3-(5-(1-(6-methoxy-3-(morpholinomethyl)-1H-indole-2-carbonyl)piperidin-4-yl)-1-oxoinsoindolin-2-yl)piperidine-2,6-dione]	14.2%	
O=Cc1c(C(=O)N2CCC(c3ccc4c(c3)CN(C3CCC(=O)NC3=O)C4=O)CC2)[nH]c2ccccc12 (stereo not drawn) [Compound 35, 2-(4-(2-(2,6-dioxopiperidin-3-yl)-1-oxoindolin-5-yl)piperidine-1-carbonyl)-1H-indole-3-carbaldehyde]	76.6%	52.3%
O=C1CCC(N2Cc3cc(C=C4CCN(C(=O)c5c[nH]c6ccccc56)CC4)ccc3C2=O)C(=O)N1 (stereo not drawn) [Compound 25, 3-(5-((1-(1H-indole-3-carbonyl)piperidin-4-ylidene)methyl)-1-oxoinsoindolin-2-yl)piperidine-2,6-dione]	93.6%	87.5%
Cc1c(C(=O)N2CCC(n3cc(-c4ccc5c(c4)CN(C4CCC(=O)NC4=O)C5=O)nn3)CC2)[nH]c2cc(Cl)ccc12 (stereo not drawn) [Compound 66, 3-(5-(1-(1-(6-chloro-3-methyl-1H-indole-2-carbonyl)piperidin-4-yl)-1H-1,2,3-triazol-4-yl)-1-oxoinsoindolin-2-yl)piperidine-2,6-dione]		87.8%
